Experimental data from US12410164B2, “Heterocyclic compounds and medical use thereof” (FONDAZIONE TELETHON, priority 2018, dated 2025).
Entries after “also recorded” stand apart in the source; their conditions may differ.

What was measured:
F508del-CFTR [1] = molecular target: T1, F508del-CFTR (Homo sapiens, UniProt P13569, DEL508-508); experiment: HS-YFP kinetic fluorescence (iodide quenching rate) assay in CFBE41o− cells; assay type: cell-based; set-up: expressed in transfected cells; host or cells: CFBE41o- cells with expression of F508del-CFTR and HS-YFP (generated as in Sondo et al. 2011); settings: for AI (%) additivity index: Table 1, compound at 10 μM plus VX-809, (QRTOT − QRVX)/QRVX, HS-YFP assay; for structure-activity comparison of corrector potency/activity: relative to the analogue
In short: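 CFBE41o- cells co-expressing F508del-CFTR and HS-YFP, treated 24 h with compound (0.1-0.2% DMSO), then stimulated with 20 μM forskolin plus 50 μM genistein. Fluorescence was read for 14 s during NaI injection. Background-subtracted, normalized traces were fitted exponentially to give maximum quenching rate (QR).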

F508del-CFTR [2] = molecular target: T1, F508del-CFTR; experiment: Analysis of F508del-CFTR maturation by immunoblot in CFBE41o− cells; assay type: cell-based; set-up: expressed in transfected cells; host or cells: CFBE41o- cells with expression of F508del-CFTR and HS-YFP (generated as in Sondo et al. 2011); settings: compound 10 μM plus VX-809 1 μM, 24 hr
Description: CFBE41o− cells were grown to confluence on 60-mm diameter dishes and lysed in RIPA buffer containing a complete protease inhibitor (Roche; cat. n. 11697498001). Cell lysates were centrifuged at 12000 rpm at 4° C. for 10 min. Supernatant protein concentration was calculated using the BCA assay (Euroclone; cat. n. EMP014500) following the manufacturer's instructions. Equal amounts of total protein content (30 μg) were separated onto 10% Criterion TGX Precast gels (Bio-rad laboratories Inc.; cat. n. 4561033), transferred to nitrocellulose membrane with Trans-Blot Turbo system (Bio-rad Laboratories Inc.) and analyzed by Western blotting. Primary antibody for CFTR was anti-CFTR 596 (University of North Carolina at Chapel Hill, and Cystic Fibrosis Foundation Therapeutics, see Cui L, et al. J. Mol Biol 2007, 365, 981-994) at 1:5000 dilution. As secondary antibody, anti-mouse HRP-conjugated Ab 97023 (Abcam) was used at 1:10000 dilution. Results were subsequently visualized by chemiluminescence using the SuperSignal West Femto Substrate (Thermo Scientific) and the Molecular Imager ChemiDoc XRS System.
To analyze the mechanism of action of the compounds of the invention, two types of experiments were carried out. In the first type of experiment, the electrophoretic mobility of F508del-CFTR protein was determined by immunoblot assay. This is a frequently used method to assess the effect of correctors at the protein level. In control conditions, F508del-CFTR migrates predominantly as a single band of 150 kDa called “band B”. This is the immature form of the protein residing in the endoplasmic reticulum. When the protein folding and stability is improved by correctors, an additional band appears at higher molecular weight (170 kDa). This is the so-called band C, which represents the mature form of the CFTR protein that has reached the Golgi compartment and acquired full glycosylation.

T1 sequence (P13569 with tags, fused parts or gaps DEL508-508): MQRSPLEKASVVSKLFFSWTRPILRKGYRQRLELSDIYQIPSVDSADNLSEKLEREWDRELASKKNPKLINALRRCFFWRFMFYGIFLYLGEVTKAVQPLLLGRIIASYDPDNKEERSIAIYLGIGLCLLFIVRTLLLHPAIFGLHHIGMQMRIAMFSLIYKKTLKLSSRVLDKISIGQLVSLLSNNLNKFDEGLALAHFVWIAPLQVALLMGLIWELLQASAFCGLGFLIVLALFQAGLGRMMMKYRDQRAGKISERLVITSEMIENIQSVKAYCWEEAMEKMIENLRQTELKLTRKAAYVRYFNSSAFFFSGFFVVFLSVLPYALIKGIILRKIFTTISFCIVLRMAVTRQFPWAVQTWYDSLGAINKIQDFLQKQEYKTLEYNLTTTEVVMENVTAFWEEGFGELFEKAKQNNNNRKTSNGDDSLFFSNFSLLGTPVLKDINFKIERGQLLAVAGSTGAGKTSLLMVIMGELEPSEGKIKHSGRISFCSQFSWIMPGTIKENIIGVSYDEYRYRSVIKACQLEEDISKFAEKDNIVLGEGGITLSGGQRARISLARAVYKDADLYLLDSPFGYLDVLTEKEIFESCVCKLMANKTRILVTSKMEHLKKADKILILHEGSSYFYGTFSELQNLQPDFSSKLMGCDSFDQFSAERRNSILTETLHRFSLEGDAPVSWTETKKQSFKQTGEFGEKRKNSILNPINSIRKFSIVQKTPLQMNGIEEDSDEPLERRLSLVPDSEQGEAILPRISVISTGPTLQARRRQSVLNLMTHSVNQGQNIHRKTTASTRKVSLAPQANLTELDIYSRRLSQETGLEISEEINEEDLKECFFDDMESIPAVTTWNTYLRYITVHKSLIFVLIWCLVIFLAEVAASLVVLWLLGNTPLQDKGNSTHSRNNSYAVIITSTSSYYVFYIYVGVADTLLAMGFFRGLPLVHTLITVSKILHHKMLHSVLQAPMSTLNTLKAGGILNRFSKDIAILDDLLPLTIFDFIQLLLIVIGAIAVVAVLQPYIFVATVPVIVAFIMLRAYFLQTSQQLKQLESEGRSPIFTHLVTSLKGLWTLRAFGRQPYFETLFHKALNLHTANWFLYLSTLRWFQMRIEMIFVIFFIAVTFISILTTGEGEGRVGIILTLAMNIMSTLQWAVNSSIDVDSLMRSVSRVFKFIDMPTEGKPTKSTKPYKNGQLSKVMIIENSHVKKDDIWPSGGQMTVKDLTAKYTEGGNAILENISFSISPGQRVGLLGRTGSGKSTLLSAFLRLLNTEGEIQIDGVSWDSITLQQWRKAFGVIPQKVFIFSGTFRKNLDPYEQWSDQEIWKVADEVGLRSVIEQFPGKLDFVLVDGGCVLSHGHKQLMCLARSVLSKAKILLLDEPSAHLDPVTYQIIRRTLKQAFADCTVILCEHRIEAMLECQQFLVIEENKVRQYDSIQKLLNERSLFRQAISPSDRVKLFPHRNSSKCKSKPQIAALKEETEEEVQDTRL

Structure (SMILES) | AI (%) additivity index (F508del-CFTR [1]) [%] | structure-activity comparison of corrector potency/activity (F508del-CFTR [1]) | band C (mature form) expression versus VX-809 alone (F508del-CFTR [2]) | F508del-CFTR activity (quenching rate) of combination with VX-809 (F508del-CFTR [1]; compound plus VX-809 1 μM, 24 h)
CCOC(=O)c1c(Br)c2c(n1Cc1cccc(C)c1)-c1[nH]c(=O)c(S(=O)(=O)c3ccccc3)cc1CC2 [PP028, Ethyl 3-bromo 1-(3-methylbenzyl)-8-oxo-7-(phenylsulfonyl)-4,5,8,9-tetrahydro-1H-pyrrolo[3,2-h]quinoline-2-carboxylate] | 278 | important increase in efficiency in combination with the VX-809 and potency | markedly enhances the abundance of the mature form of the protein; also recorded: marked increase in band C expression | –
CCOC(=O)c1c(Br)c2c(n1Cc1ccc(C)cc1)-c1[nH]c(=O)c(S(=O)(=O)c3ccccc3)cc1CC2 [PP008, Ethyl 7-(benzenesulfonyl)-3-bromo-1-[(4-methylphenyl)methyl]-8-oxo-4,5,8,9-tetrahydro-1H-pyrrolo[3,2-h]quinoline-2-carboxylate] | 207 | important increase in potency; also recorded: more potent than the non-halogenated analogues | markedly enhances the abundance of the mature form of the protein; also recorded: marked increase in band C expression | strong synergistic effect
